In patent publication US7615361B2, “Toxicity screening methods” (Ceetox, Inc., priority 2006, dated 2009):

How the values were obtained:
C32 cells = test: Predicted Ctox from Tox-Panel; assay type: cell-based, human; conditions: C32, 24 HR
Protocol: Studies such as these indicate that a preferred concentration for setting Ctox is the highest concentration at which there is no observed effect on any of the indicators being measured in the cluster analysis, especially a 24-hour cluster analysis. […] It will be apparent that 24 hour assays are more time-effective, and consequently, the 24 hour NOEL/Ctox represents a preferred data point to select as Ctox in a CATS assay. It will also be apparent that, with further time studies, it may be possible to select an equally suitable Ctox at other CATS assay time points (e.g., between 24 and 72 hours, or less than 24 hours).
In certain embodiments, the predicting comprises performing concentration response analyses of measurements from at least three separate assays that are employed in the cluster analysis. For example, in the cell health cluster, such predicting will involve monitoring the concentration response effect of the compound on a first health indicator which monitors cellular replication, a second cell health indicator which monitors mitochondrial function, and a third cell health indicator which monitors membrane integrity. Of course, it is understood that fourth, fifth, sixth or more cell health indicators also may be employed. From these concentration response analyses, the highest concentration of the chemical compound at which a measurable toxic effect of the chemical compound is not observable, i.e. NOEL, is determined and the Ctox is identified as the concentration that correlates to the NOEL. In choosing the concentrations of the compound for analysis, one of skill in the art should devise a dose response regimen which is selected to provide an indication of cell health at concentrations of at least two concentration values higher than the Ctox concentration.
The results are summarized in Tables 14-17 and in FIGS. 83-102. Table 14 compares the test compound TC50 values for each assay endpoint. Test compounds are rank-ordered from most to least toxic based on their TC50 values and overall shape of the response curves. The Ctox value, or estimated sustained blood concentration where toxicity would first be expected to occur in a rat 14-day repeated dose study, is also included in this table. Negative and positive controls are included with every run. Assay response is continually monitored to assure reliable results. […] Table 15 summarizes oxidative stress and apoptosis data, Table 16 summarizes the solubility data, and Table 17 provides information on interaction with PgP.
The Ctox value was developed using 24 hr in vitro (H4IIE) toxicity data and was validated by retrospectively evaluating compounds across different classes of drugs in 14-day rat studies in which compounds were administered on a daily basis and pharmacokinetic data was available. […] Thus, Ctox values are only determined for the 24 hr in vitro results. In this example, Ctox values could not be estimated due to low toxicity in most of the cell lines.

[1] = Intracellular total glutathione (GSH); conditions: human
Protocol: Intracellular Glutathione (GSH) Levels: Intracellular glutathione levels were determined essentially as described by Griffith (1980) with modifications. At the end of the exposure period, the medium was removed from the cells and metaphosphoric acid (MPA) was added to each well. Plates were then shaken for 5 min at room temperature and stored at −20° C. until needed.
The sample plates were thawed just prior to analysis and centrifuged at >2000×g for at least 2 min. Sample aliquots were removed and transferred to a clean 96-well plate along with appropriate standard curve controls. Sample pH was neutralized just prior to analysis and each well received an aliquot of sodium phosphate reaction buffer containing EDTA, DTNB, NADPH, and glutathione reductase. The plates were mixed for 15-30 min at room temperature and glutathione content was determined calorimetrically with a Packard Fusion or equivalent reader at 415 nm.
Intracellular Glutathione (GSH) Levels: The assay is based on the concept that all GSH is oxidized to GSSG by DTNB reagent. Two molecules of GSH are required to make one molecule of GSSG. Total GSH was determined by reducing GSSG to 2GSH with glutathione reductase. A standard curve was prepared with oxidized glutathione (GSSG) over a range of concentrations. These concentrations are then converted to glutathione equivalents (GSX) essentially by multiplying the GSSG standard concentrations by 2. The amount of GSX expressed as pmoles/well was determined using the standard curve and regression analysis.
The test compound consisted of two parts mixed in a constant ratio of 5:1. The final test mixture consisted of Test mix 1 and Test mix 2, which were received as frozen solutions. The test mixture was tested in a ratio of 5:1 COMP A in five different cell types which included the following: SK-MEL28, human hepatocytes, HUVEC, C32, and NHEM cells. Cells were seeded into 96-well plates and cultured in medium containing 10% bovine serum. Following an equilibration period of 48 hr, the cells were treated with the test compound mix at concentrations of COMP A (μg/mL)=(250:50), (125:25), (25:12.5), (12.5:2.5), (2.5:1.25), (1.25:0.25), and (0.25:0.05) for 24 hr (overnight) at 37° C. in 5% CO2. […] Following an equilibration period of 4 hr, the cells were treated with the test compound mix at concentrations of COMP A (μg/mL)=(250:50), (125:25), (25:12.5), (12.5:2.5), (2.5:1.25), (1.25:0.25), and (0.25:0.05) for 24 hr (overnight) at 37° C. in 5% CO2.
Experimental Protocol: The test compounds were shipped on dry ice for testing. The compounds were stored frozen at −80° C. until needed. Dosing solutions were prepared in complete culture medium. SK-MEL28, human hepatocytes, HUVEC, C32, and NHEM cells were used as the test systems. Cells were seeded into 96-well plates and allowed to equilibrate for approximately 48 hr. Following the equilibration period the cells were exposed to the test compound mix at concentrations of COMP A (μg/mL)=(250:50), (125:25), (25:12.5), (12.5:2.5), (2.5:1.25), (1.25:0.25), and (0.25:0.05). Solubility was determined by Nephalometry techniques immediately after dosing and prior to harvesting the cells at 24 hr. Following the exposure period, the cells or their supernatant (culture medium) were analyzed for changes in cell proliferation, membrane leakage, mitochondrial function, oxidative stress, and apoptosis. The resultant exposure concentration response curves were graphed and analyzed for determining the concentration that produced a half maximal response or TC50.

CC[C@@]1(O)C(=O)OCc2c1cc1n(c2=O)Cc2cc3ccccc3nc2-1 [CAMPTOTHECIN, Camptothecin]
Predicted Ctox (C32 cells): 0.1 µM
CC50 at 24 h ([1]; C32 cells): 1000 nM
CC50 at 24 h ([1]; HUVEC cells): 1000 nM
CC50 at 24 h ([1]; human hepatocytes): 44000 nM
